We go through four molecules from patent publication US10172837B2, “Insulin sensitisers and methods of treatment” (NAIA Metabolic, Inc., priority 2007, dated 2019).

Molecules are shown by their SMILES.

What all share (format): in vivo, Mus Musculus
Data set [1] deals with Diet-Induced Obese (DIO) Mice. As to the kind of experiment: Fasting plasma glucose in diet-induced obese mice. Particulars: for FPG Day −1: before dosing.
The test system of data set [2] is Diet-Induced Obese (DIO) Mice. As to the kind of experiment: ipGTT (glucose tolerance) in diet-induced obese mice. Particulars: for AUC Day −1: before dosing.
The test system of a further data set is db/db mice. As to the kind of experiment: Fasting plasma glucose in db/db mice. Particulars: for FPG Day 0: Metformin 300 mg/kg group. The text has this: The db/db mouse model comprises mice with a homozygous mutation of the leptin receptor gene that ablates leptin signalling in the hypothalamus and elsewhere. The db/db mouse model is commonly used to study the genetic and physiological mechanisms of obesity and type II diabetes. […] Leptin acts through the leptin receptor to control whole-body energy homeostasis by regulating both appetite and energy expenditure. Loss of function of the leptin receptor gene results in hyperphagia and slower metabolism, leading to obesity and eventually diabetes. […] Dosing solutions of the test articles: Methazolamide, Metformin and Methazolamide/Metformin were prepared fresh on each dosing day and stored at room temperature, protected from light. The compound was formulated in sterile vehicle: […] Stock solutions were prepared by dissolving the compound in NMP:PEG300 (1:2, v/v). Saline was added to the stock solution prior to administration of the compound. The solutions were mixed by vortexing immediately prior to dosing to ensure a homogeneous suspension of the compound. Male C57Bl/6J db/db mice were obtained at 10 weeks of age from Animal Resources Centre ([…], Western Australia). Animals were individually housed and allowed free movement and ad libitum access to water and food. Animals were maintained on a 12 hour light (6 am-6 pm) and 12 hour dark (6 pm-6 am) cycle. Animals were monitored daily. Body weight, food and water intake were recorded 3 times a week. Mice were fed a standard chow diet, and used after a two week acclimatisation period. […] The fasting plasma glucose levels of the animals was tested prior to commencement of the study and then every 3-4 days during dosing. The animals were fasted for a period of 4 hours after dosing and prior to the taking of a blood sample via a tail nick. Blood glucose levels were monitored using commercially available glucometers (Accuchek Advantage, Roche) based on the electric current generated when a blood drop is spotted on a test strip resulting in conversion of the glucose present in the sample to gluconolactone by the glucose dehydrogenase enzyme, in the presence of the coenzyme (PQQ).

Data set [3] is described as follows: Body weight of treated diet-induced obese mice. How it is done: Male C57Bl/6J mice were obtained at 8 weeks of age from Animal Resources Centre (Canning Vale, Western Australia). Animals were individually housed and allowed free movement and ad libitum access to water and food. Animals were maintained on a 12 hour light (6 am-6 pm) and 12 hour dark (6 pm-6 am) cycle. Animals were monitored daily. Body weight, food and water intake were recorded 3 times a week.

Setting [4] is: Metformin 300 mg/kg oral gavage.
[5] abbreviates: Furosemide 10 mg/kg oral gavage.
[6] abbreviates: Furosemide 20 mg/kg oral gavage.
The mark [7] stands for this setting: Furosemide 50 mg/kg oral gavage.
The mark [8] stands for this setting: Acetazolamide 10 mg/kg b.i.d. oral gavage.
[9] abbreviates: Acetazolamide 20 mg/kg b.i.d. oral gavage.
[10] abbreviates: Acetazolamide 50 mg/kg b.i.d. oral gavage.
Setting [11] is: Chlorthalidone 10 mg/kg oral gavage.
The mark [12] stands for this setting: Chlorthalidone 20 mg/kg oral gavage.
The mark [13] stands for this setting: Chlorthalidone 50 mg/kg oral gavage.

For `CN(C)C(=N)N=C(N)N` [Metformin], in data set [1] (Metformin 300 mg/kg group), the “FPG Day −1” value amounted to 6.1 ± 0.6 mM. In data set [1] (setting [4]), the “Delta FPG Treatment Day 13 vs Day −1” value was 11%, the “Delta FPG Treatment vs Vehicle Day 13” value was −11% and the “FPG Day 13” value is 6.8 ± 0.4 mM. The “AUC Day −1” value in data set [2] (Metformin 300 mg/kg group) amounted to 1171 ± 81 mM·min. Besides, in data set [2] (setting [4]), the “AUC Day 13” value was determined as 1307 ± 91 mM·min, the “AUC Day 13 Treat vs Veh” value stood at 8% and the “Delta AUC Day 13 vs Day −1” value is reported as 12%. Also, the “FPG Day 0” value in the data set with db/db mice (before dosing (Table 9-1)) is 23.86 ± 1.4 mM. For the same molecule, the “FPG Day 0” value in the data set with db/db mice (before dosing (Table 9-2)) was 23.86 ± 1.4 mM. Also, in the data set on db/db mice (setting [4]), the “Delta FPG Treatment Day 8 vs Day 0” value is given as −20%^2, the “Delta FPG Treatment Day 18 vs Day 0” value is reported as −16%^, the “FPG Day 8” value was determined as 19.10 ± 2.1 mM and the “FPG Day 18” value came to 20.01 ± 1.8 mM. For the same molecule, in the data set on db/db mice (setting [4]), the “FPG Treatment vs Vehicle Day 8” value was −18%^ and the “FPG Treatment vs Vehicle Day 18” value is −27%^4.
In the case of `NS(=O)(=O)c1cc(C(=O)O)c(NCc2ccco2)cc1Cl` [Furosemide], the “FPG Day −1” value in data set [1] (Furosemide 10 mg/kg group) is 7.28 ± 0.3 mM; in data set [1] (Furosemide 20 mg/kg group), 7.4 ± 0.4 mM; in data set [1] (Furosemide 50 mg/kg group) it was 6.78 ± 0.3 mM. For the same molecule, the “Delta FPG Treatment Day 13 vs Day −1” value in data set [1] (setting [5]) was determined as 24%; in data set [1] (setting [6]) it was 15%; in data set [1] (setting [7]) it was 20%. Besides, the figures for the “FPG Day 13” value in data set [1] (setting [5]), in data set [1] (setting [6]) and in data set [1] (setting [7]) were 9.02 ± 0.4 mM, 8.50 ± 0.4 mM and 8.16 ± 0.6 mM, respectively. Further, the “FPG Treatment vs Vehicle Day 13” value in data set [1] (setting [5]) is listed as 4%; in data set [1] (setting [6]) it was −2%; in data set [1] (setting [7]), −6%. Moreover, the “outcome of animals” value in data set [3] (100 mg/kg/d, DIO mice) is “had to be euthanized”. In data set [3] (100 mg/kg/d, in 5 days, DIO mice), the body weight lost is reported as roughly 6 g. For the same molecule, in data set [3] (DIO mice, consistent with a toxic effect), the “body weight effect” value is recorded as “substantial body weight loss”.
In the case of `CC(=O)Nc1nnc(S(N)(=O)=O)s1` [Acetazolamide], in data set [1], the “effect on fasting plasma glucose levels of diet-induced obese mice” value was “reduced the fasting plasma glucose levels”. The “Delta FPG Treatment Day 13 vs Day −1” value in data set [1] (setting [8]) is listed as −9%; in data set [1] (setting [9]), −14%^2; in data set [1] (setting [10]), −5%. Moreover, the results for the “FPG Day 13” value in data set [1] (setting [8]), in data set [1] (setting [9]) and in data set [1] (setting [10]) were 5.76 ± 0.43 mM, 5.46 ± 0.32 mM and 6.28 ± 0.31 mM, respectively. Also, the “FPG Treatment vs Vehicle Day 13” value in data set [1] (setting [8]) is −9%; in data set [1] (setting [9]), −14%^1; in data set [1] (setting [10]), −1%. In addition, the “FPG Day −1” value in data set [1] (Acetazolamide 10 mg/kg group) came to 6.35 ± 0.5 mM; in data set [1] (Acetazolamide 20 mg/kg group) it was 6.32 ± 0.42 mM; in data set [1] (Acetazolamide 50 mg/kg group), 6.62 ± 0.38 mM. In data set [2], the “effect on glucose tolerance of diet-induced obese mice” value is “increased the glucose tolerance”. In addition, the “AUC Day 13” value amounted to 944 ± 26 mM·min in data set [2] (setting [8]), 902 ± 98 mM·min in data set [2] (setting [9]) and 1020 ± 144 mM·min in data set [2] (setting [10]). The entries for the “AUC Treatment vs Vehicle Day 13” value in data set [2] (setting [8]), in data set [2] (setting [9]) and in data set [2] (setting [10]) were −22%^2, −25%^3 and −15%^, respectively. In addition, the “Delta AUC Treatment Day 13 vs Day −1” value in data set [2] (setting [8]) is −30%^1; in data set [2] (setting [9]), −33%^1; in data set [2] (setting [10]) it was −23%^2. For the same molecule, the “AUC Day −1” value was found to be 1342 ± 88 mM·min in data set [2] (Acetazolamide 10 mg/kg group), 1340 ± 68 mM·min in data set [2] (Acetazolamide 20 mg/kg group) and 1323 ± 109 mM·min in data set [2] (Acetazolamide 50 mg/kg group). Besides, the “difference in body weight between treated groups” value in data set [3] (Day 0 or Day 13, DIO mice) was “no difference in body weight”.
As to `NS(=O)(=O)c1cc(C2(O)NC(=O)c3ccccc32)ccc1Cl` (stereo not drawn) [Chlorthalidone], in data set [1], the “effect on fasting plasma glucose levels of diet-induced obese mice” value was “no beneficial effect”. In addition, the “FPG Day −1” value in data set [1] (Chlorthalidone 10 mg/kg group) is on record as 7.8 ± 0.31 mM; in data set [1] (Chlorthalidone 20 mg/kg group), 7.58 ± 0.18 mM; in data set [1] (Chlorthalidone 50 mg/kg group), 7.94 ± 0.4 mM. In addition, the results for the “Delta FPG Treatment Day 13 vs Day −1” value in data set [1] (setting [11]), in data set [1] (setting [12]) and in data set [1] (setting [13]) were 4%, −7% and −7%, respectively. Also, the results for the “FPG Day 13” value in data set [1] (setting [11]), in data set [1] (setting [12]) and in data set [1] (setting [13]) were 8.08 ± 0.35 mM, 7.08 ± 0.31 mM and 7.4 ± 0.51 mM, respectively. Further, the “FPG Treatment vs Vehicle Day 13” value was 5% in data set [1] (setting [11]), −8% in data set [1] (setting [12]) and −4% in data set [1] (setting [13]). Also, the “effect on glucose tolerance of diet-induced obese mice” value in data set [2] is on record as “no beneficial effect”. Further, the “AUC Day −1” value came to 1439 ± 137 mM·min in data set [2] (Chlorthalidone 10 mg/kg group), 1416 ± 110 mM·min in data set [2] (Chlorthalidone 20 mg/kg group) and 1398 ± 87 mM·min in data set [2] (Chlorthalidone 50 mg/kg group). For the same molecule, the “AUC Day 13” value in data set [2] (setting [11]) came out at 1660 ± 137 mM·min; in data set [2] (setting [12]), 1263 ± 75 mM·min; in data set [2] (setting [13]), 1512 ± 46 mM·min. Further, the “AUC Treatment vs Vehicle Day 13” value is recorded as 29% in data set [2] (setting [11]), −2% in data set [2] (setting [12]) and 17% in data set [2] (setting [13]). Also, the “Delta AUC Treatment Day 13 vs Day −1” value is listed as 15% in data set [2] (setting [11]), −11% in data set [2] (setting [12]) and 8% in data set [2] (setting [13]).
